Experimental data taken from US4252956A, “Derivatives of 1,4-dihydropyridine-3-carbothiol acids” (priority 1979, dated 1981).
Like-named read-outs stand apart in the source and are kept apart here.

Experiments:
coronary blood flow = assay: recording the volume rate of coronary blood flow in experiments on narcotized cats (coronarodilating activity); format: in vivo; settings: for ED (30-50%): Felis catus, iv, read-out: Dose increasing the coronary blood flow by 30-50%; for coronarodilating activity: narcotized cats; for Duration of the effect: Table, at the dose increasing the coronary blood flow
Description: (§1) Tests of the compounds according to the present invention were performed in comparison with the prior art coronarodilating agents; carbocromene and ditrimine and with the prior art spasmolytic preparation-papaverine having a myotropic effect.

arterial pressure = assay: hypotensive effect (arterial pressure, heart activity); format: in vivo; settings: for ED30: read-out: ED30 of the hypotensive effect
Description: as §1

in vivo = settings: mouse, in vivo, ip; white mice, intraperitoneal; read-out: LD50 for white mice upon intraperitoneal administration
[1] = system: coronarodilating activity; settings: in vivo; cited from earlier work
white mice = assay: in vivo
[2] = increase of coronary blood flow by 30-50%

SMILES | ED30 (arterial pressure) [mg/kg] | ED (30-50%) (coronary blood flow; [2]) [mg/kg] | Duration of the effect (coronary blood flow) [min] | further results
CC1=C(C(=O)SCc2ccccc2)C(c2ccccc2)C2=C(N1)c1ccccc1C2=O (centres unmarked) [VI, 2-methyl-3-benzylthiocarbonyl-4-phenyl-5-oxo-1,4-dihydroindeno-(1,2-b)-pyridine] | 1 | – | – | ED (30-50%) (coronary blood flow): 0.3 mg/kg; coronarodilating activity (coronary blood flow): most active
CC1=C(C(=O)SCc2ccccc2)C(c2ccccc2O)C2=C(N1)c1ccccc1C2=O (centres unmarked) [VII, 2-methyl-3-benzylthiocarbonyl-4-o-hydroxyphenyl-5-oxo-1,4-dihydroindeno-(1,2-b)-pyridine] | 1 | – | – | ED (30-50%) (coronary blood flow): 0.5 mg/kg; coronarodilating activity (coronary blood flow): most active
CCSC(=O)C1=C(C)NC2=C(C(=O)c3ccccc32)C1c1ccccc1 (centres unmarked) [V, 2-methyl-3-ethylthiocarbonyl-4-phenyl-5-oxo-1,4-dihydroindeno-(1,2-b)-pyridine] | 3 | 3 | – | –
COc1ccc(Cc2nccc3cc(OC)c(OC)cc23)cc1OC [Papaverine, reference compound] | 0.27 | – | 10 to 20 | ED (30-50%) (coronary blood flow): 1 mg/kg; LD50 (in vivo): 91 mg/kg
CCOC(=O)C1=C(C)NC(C)=C(C(=O)SCc2ccccc2)C1c1ccccc1 (centres unmarked) [III, 3-S-benzyl-5-ethyl ester of 4-phenyl-2,6-dimethyl-1,4-dihydropyridine-3-carbothiol-5-carboxylic acid] | 1.65 | 0.5 | 150 | coronarodilating activity (coronary blood flow): most active
CCOC(=O)C1=C(C)NC(C)=C(C(=O)SCc2ccccc2)C1C (centres unmarked) [IV, 3-S-benzyl-5-ethyl ester of 2,4,6-trimethyl-1,4-dihydropyridine-3-carbothiol-5-carboxylic acid] | 3.45 | 2 to 4 | 30 to 60 | –
CCOC(=O)COc1ccc2c(C)c(CCN(CC)CC)c(=O)oc2c1 [Carbocromene, reference compound] | – | 0.5 | – | –
CCSC(=O)C1=C(C)NC2=C(C(=O)c3ccccc32)C1c1ccc([N+](=O)[O-])cc1 (centres unmarked) [IX, 2-methyl-3-ethyl-thiocarbonyl-4-p-nitrophenyl-5-oxo-1,4-dihydroindeno-(1,2-b)-pyridine] | 1 | 3 | – | –
CCSC(=O)C1=C(C)NC2=C(C(=O)c3ccccc32)C1c1ccccc1[N+](=O)[O-] (centres unmarked) [X, 2-methyl-3-ethylthiocarbonyl-4-o-nitrophenyl-5-oxo-1,4-dihydroindeno-(1,2-b)-pyridine] | – | 3 | – | LD50 (in vivo): > 2000 mg/kg
COC(=O)C1=C(C)NC(C)=C(C(=O)OC)C1c1ccccc1[N+](=O)[O-] [2,6-dimethyl-3,5-dicarbometh-oxy-4-o-nitrophenyl-1,4-dihydropyridine] | – | – | – | coronarodilating activity (prior art) [1]: pronounced coronarodilating activity
CCSC(=O)C1=C(C)NC(C)=C(C(=O)SCC)C1 [I, Di-S-ethyl ester of 2,6-dimethyl-1,4-dihydropyridine-3,5-dicarbothiol acid] | 1.8 | 1 | 60 to 90 | LD50 (in vivo): > 4000 mg/kg
CCSC(=O)C1=C(C)NC2=C(C(=O)c3ccccc32)C1c1ccccc1O (centres unmarked) [VIII, 2-methyl-3-ethylthiocarbonyl-4-o-hydroxyphenyl-5-oxo-1,4-dihydroindeno-(1,2-b)pyridine] | 5 | 3 | – | –
CCSC(=O)C1=C(C)NC(C)=C(C(=O)SCC)C1c1cccnc1 [II, Di-S-ethyl ester of 2,6-dimethyl-4-m-pyridyl-1,4-dihydropyridine-3,5-dicarbothiol acid] | 0.56 | 0.5 | > 120 | coronarodilating activity (coronary blood flow): most active
COc1cc(C(=O)OCCCN(C)CCN(C)CCCOC(=O)c2cc(OC)c(OC)c(OC)c2)cc(OC)c1OC [Ditrimine, reference compound] | – | – | – | Dose increasing the coronary blood flow by 30-50% (coronary blood flow; [2]): 0.5 mg/kg; LD50 for white mice upon intraperitoneal administration (white mice): 180 (149-218) mg/kg; ED30 of the hypotensive effect (arterial pressure; in vivo): 1.0 mg/kg
